Reference: patent publication US20230040386A1, “URSODEOXYCHOLIC ACID-CONTAINING AGENT FOR TREATING OR PREVENTING PRESBYOPIA” (priority 2018, published 2023)

Test system: lens
Test: Pharmacological Test 1: lens elasticity after instillation of EV06
Format: in vivo, C57BL/6J mice
Settings: all of the 0.5%, 1.5% and 5% groups compared with vehicle control group
Method: The effect of lipoic acid choline ester (EV06) on the lens elasticity was examined. The tests were conducted with reference to the methods described in InvestOphthalmol Vis Sci, 57, 2851-2863, 2016. EV06 is a compound represented by the following formula (2): A vehicle comprising 0.1% (w/v) of ethyl pyruvate, 0.269% (w/v) of sodium dihydrogenphosphate monohydrate (NaH2PO4H2O), 0.433% (w/v) of disodium hydrogenphosphate ([…]), 0.2% (w/v) of hydroxypropyl methylcellulose, and 0.5% (w/v) of NaCl was prepared. EV06 was sonicated with the addition of the vehicle to prepare a 5% (w/v) suspension. The resulting 5% (w/v) suspension was diluted with the vehicle to prepare a 1.5% (w/v) solution. Further, the resulting 1.5% (w/v) solution was diluted with the vehicle to prepare a 0.5% (w/v) solution. The total amount of each sample to be used in one day was prepared before use. […] 4) The lens was placed on a glass slide, and an all-in-one fluorescence microscope BZ-9000 (Keyence) was used to capture an image of the lens (Image a). […] 6) A change in the lens diameter was calculated from Equation 1 wherein the lens diameter of Image a is subtracted from the lens diameter of Image b, as described below. Then, the lens elasticity improvement of each sample group compared with the vehicle control group was calculated from Equation 2 described below. […]

C[N+](C)(C)CCOC(=O)CCCC[C@@H]1CCSS1 [EV06, lipoic acid choline ester]
Lens diameter / elasticity improving effect, in words: increased lens diameter
